The text below walks through data of paper PMC8388802, “Study on the Structure-Activity Relationship of an Antimicrobial Peptide, Brevinin-2GUb, from the Skin Secretion of Hylarana guentheri” (Antibiotics, 2021).

≈ marks a conversion by molar mass, not a printed value. Where a SMILES comes first, the peptide text is derived from it. Some results are limits rather than exact numbers.

Data set [1] concerns wax moth (Galleria mellonella). In words: Toxicity of peptides to waxworms. The data set is classed as in vivo. The conditions noted are these: uninfected waxworms, 7.5, 15 and 30 mg/kg, injection.
The test system of data set [2] is MRSA (B042 V2E1 A). The data set is classed as cell-based, Methicillin-resistant Staphylococcus aureus. The protocol:
(§1) The method of antimicrobial assay is based on the Methods for Dilution Antimicrobial Susceptibility Tests for Bacteria that Grow Aerobically from the Clinical and Laboratory Standards Institute (CLSI).The antimicrobial activities of peptides were evaluated against Gram-positive bacteria S. aureus (ATCC 6538), MRSA (NCTC 12493), E. faecalis (NCTC 12493), Gram-negative bacteria E. coli (ATCC CRM 8739), K. pneumoniae (ATCC 43816), P. aeruginosa (ATCC CRM 9027), yeast C. albicans (ATCC CRM 10231) and clinical isolates MRSA (B042 V2E1 A), E. coli (ATCC BAA-2340), K. pneumoniae (ATCC BAA-1705), P. aeruginosa (B004 V2S2 B).
(§2) At the first stage of the assay, 20 μL bacteria were cultured in 100 mL Mueller Hinton Broth (MHB) or Yeast Extract–Peptone–Dextrose broth (YPD-B), respectively, and was incubated overnight. Then, microorganisms were subcultured in 20 mL fresh MHB or YPD-B to achieve cultures in the logarithmic phase (1 × 10^8 CFU/mL), which can be verified by optical density (OD) (The OD of Gram-positive bacteria is 0.23, OD of Gram-negative bacteria is 0.4, and OD of yeast is 0.15), and viable cell counts. Then, the medium was used to dilute the cultures to specific cell densities (Gram-negative and Gram-positive bacteria: 5 × 10^5 CFU/mL; yeast: 1 × 10^6 CFU/mL), which were the final concentrations of bacterial suspensions used in the assay. The peptides were dissolved in DMSO to reach a final concentration of 512 µM. A series of two-fold dilutions ranging from 512 µM to 1 µM were dosed in the 96-well plates.
(§3) Antimicrobial assays were conducted in 96-well plates, which were divided into five groups, including a negative control group (PBS), a positive control group (20 μg/mL norfloxacin for bacteria and 10 μg/mL amphotericin B for yeast), vehicle control (1% DMSO), blank control (MHB or YPD-B), and a peptide group. Each microorganism had five repetitions, and each well contained 1 µL corresponding solution and 99 µL culture. After incubation at 37 °C overnight, the absorbance of each well was tested by a microplate reader (EL808, Biolise BioTek Winooski, Minneapolis, USA) under a 550 nm wavelength. The MIC is the lowest concentration at which no bacterial growth can be observed.
(§4) The next day, 10 µL of every clear well was taken out to be cultured on a Mueller Hinton Agar (MHA) plate and incubated at 37 °C for 16–20 h. The MBC is the lowest concentration without any bacterial colonies, which means at this concentration, the peptide reduces the viability of the pathogen by more than 99.9%.

Data set [3] concerns MRSA (NCTC 12493). Format: cell-based, Methicillin-resistant Staphylococcus aureus. The protocol: as §1, §2, §3, §4
The subject of data set [4] is P. aeruginosa (B004 V2S2 B). The data set is classed as cell-based, Pseudomonas aeruginosa. The procedure:
as §1, §2, §3, §4

The subject of data set [5] is P. aeruginosa (ATCC CRM 9027). Format: cell-based, Pseudomonas aeruginosa. The procedure:
as §1, §2, §3, §4

The test system of data set [6] is MRSA (NCTC 12493) biofilm. The data set is classed as cell-based, Methicillin-resistant Staphylococcus aureus. The conditions noted are these: NCTC 12493, 24 h. The protocol:
(§5) The anti-biofilm activities of the peptides against S. aureus (ATCC 6538), MRSA (NCTC 12493), E. faecalis (NCTC 12493), E. coli (ATCC CRM 8739), K. pneumoniae (ATCC 43816), and P. aeruginosa (ATCC CRM 9027) were evaluated.
(§6) The bacteria were inoculated in a different medium (Gram-positive bacteria were in TSB and Gram-negative bacteria were in LB) overnight, and the subculture was conducted in the same medium. When the bacteria reached a specific density, 100 µL of the dilution was added to each well of the 96-well microplate. Then 1 µL of peptide at a series of concentrations, the same concentration in the antimicrobial assay, were added into the well together with the bacteria. The plates were put into a moist shaking incubator with a speed of 200 rpm, and the temperature was set at 37 ℃. After a 24-h incubation, the liquid in the wells was aspirated, and each was washed twice by 100 µL PBS. One hundred µL of methanol were added into each well to stabilise the biofilm. After air-drying, 100 µL crystal violet was used to dye the biofilm, and they were dissolved in the 100 µL glacial acidic acid after drying. The solutions were transferred to a new microplate, and the absorbance of each well was tested by a microplate reader (EL808, Biolise BioTek Winooski, Minneapolis, MN, USA) at 595 nm wavelength. MBIC was the minimum concentration of the peptide showing no biofilm formation.
The bacteria were inoculated in a different medium (Gram-positive bacteria were in TSB and Gram-negative bacteria were in LB) overnight, and the subculture was conducted in the same medium. When the bacteria reached a specific density, 100 µL of the dilution was added to each well of the 96-well microplates. The plates were put into a moist shaking incubator with a speed of 200 rpm and the temperature was 37 ℃. […] The solutions were transferred to a new microplate, and the absorbance of each well was tested by a microplate reader (EL808, Biolise BioTek Winooski, Minneapolis, USA) at 595 nm wavelength.

The test system of data set [7] is S. aureus (ATCC 6538) biofilm. The data set is classed as cell-based, Staphylococcus aureus. To be noted: ATCC 6538, 24 h. The procedure: as §5, §6
(§7) The bacteria were inoculated in a different medium (Gram-positive bacteria were in TSB and Gram-negative bacteria were in LB) overnight, and the subculture was conducted in the same medium. When the bacteria reached a specific density, 100 µL of the dilution was added to each well of the 96-well microplates. The plates were put into a moist shaking incubator with a speed of 200 rpm and the temperature was 37 ℃. After a 24 h incubation, the liquid in the wells was aspirated and they were washed twice by 100 µL PBS of each well. The peptides with the same concentrations were diluted in the corresponding medium and 100 µL were added into each well. After a 24-h incubation, the liquid in the wells was aspirated and they were washed twice by 100 µL PBS. One hundred µL of methanol were added into the wells to stabilise the biofilms. After being air-dried, 100 µL crystal violet was used to dye the biofilm, and they were dissolved in the 100 µL glacial acidic acid after drying. The solutions were transferred to a new microplate, and the absorbance of each well was tested by a microplate reader (EL808, Biolise BioTek Winooski, Minneapolis, USA) at 595 nm wavelength.

Data set [8] deals with K. pneumoniae (ATCC 43816) biofilm. The data set is classed as cell-based, Klebsiella pneumoniae. The conditions noted are these: ATCC 43816, 24 h. The procedure: as §5, §6, §7
Data set [9] has as its system E. coli (ATCC CRM 8739). The data set is classed as cell-based, Escherichia coli. The protocol:
as §1, §2, §3, §4

The test system of data set [10] is E. coli (ATCC BAA-2340). The data set is classed as cell-based, Escherichia coli. The procedure: as §1, §2, §3, §4

For the compound `CC[C@H](C)[C@H](NC(=O)[C@@H](NC(=O)CN)C(C)C)C(=O)N[C@H](C(=O)N[C@@H](CCCCN)C(=O)N[C@@H](CCCCN)C(=O)N[C@@H](CC(C)C)C(=O)N[C@@H](CCCCN)C(=O)NCC(=O)N[C@@H](C)C(=O)N[C@@H](C)C(=O)N[C@@H](CCCCN)C(=O)N[C@@H](CCCCN)C(=O)N[C@H](C(=O)N[C@@H](C)C(=O)N[C@@H](C)C(=O)N[C@@H](CCCCN)C(=O)N[C@@H](CC(C)C)C(=O)N[C@@H](CC(C)C)C(N)=O)C(C)C)[C@@H](C)CC` [tB2U-6K] (H-GVIIKKLKGAAKKVAAKLL-NH2), in data set [1], the “survival rate of waxworms treated with peptide” value amounted to 100%. Moreover, the MBC (usually the lowest tested concentration that kills the bacteria rather than only halting them) in data set [2] turned out to be 256 µM (≈ 499 µg/mL); in data set [3], 128 µM (≈ 249 µg/mL); in data set [4], 64 µM (≈ 125 µg/mL); in [5], 16 µM (≈ 31.2 µg/mL); in [9], 2 µM (≈ 3.9 µg/mL); in [10], 8 µM (≈ 15.6 µg/mL). Also, the MIC (as a rule, the smallest concentration in the dilution series that meets the test's criterion for growth inhibition) in [2] is 256 µM (≈ 499 µg/mL); in [3] it was 64 µM (≈ 125 µg/mL); in [4], 64 µM (≈ 125 µg/mL); in [5], 16 µM (≈ 31.2 µg/mL); in data set [9], 2 µM (≈ 3.9 µg/mL); in data set [10] it was 8 µM (≈ 15.6 µg/mL). Besides, the values for the MBIC in data set [6], in data set [7] and in data set [8] were 32 µM, 64 µM and 32 µM, respectively. Besides, the MBEC in [7] and in [8] was over 512 µM throughout.

With `CC[C@H](C)[C@H](NC(=O)[C@@H](NC(=O)CN)C(C)C)C(=O)N[C@H](C(=O)N[C@@H](CCCCN)C(=O)N[C@H](C(=O)N[C@@H](CC(C)C)C(=O)N[C@@H](CCCCN)C(=O)NCC(=O)N[C@@H](C)C(=O)N[C@@H](C)C(=O)N[C@@H](CCCCN)C(=O)N[C@H](C(=O)N[C@H](C(=O)N[C@@H](C)C(=O)N[C@@H](C)C(=O)N[C@@H](CCCCN)C(=O)N[C@@H](CC(C)C)C(=O)N[C@@H](CC(C)C)C(N)=O)C(C)C)[C@@H](C)O)[C@@H](C)O)[C@@H](C)CC` [tB2U-K] (H-GVIIKTLKGAAKTVAAKLL-NH2), the “survival rate of waxworms treated with peptide” value in [1] is listed as 100%. Further, the MBC in data set [2] is over 512 µM; in data set [3] it was 128 µM (≈ 242 µg/mL); in data set [4], over 512 µM; in data set [5] it was 32 µM (≈ 60.6 µg/mL); in [9] it was 8 µM (≈ 15.2 µg/mL); in data set [10], 16 µM (≈ 30.3 µg/mL). The MIC in data set [2] was over 512 µM; in data set [3], 128 µM (≈ 242 µg/mL); in data set [4], over 512 µM; in [5] it was 32 µM (≈ 60.6 µg/mL); in data set [9] it was 8 µM (≈ 15.2 µg/mL); in data set [10], 16 µM (≈ 30.3 µg/mL). In addition, the MBIC in data set [6] is 16 µM; in [7] it was 16 µM; in data set [8] it was 128 µM. Moreover, the MBEC in data set [7] and in data set [8] was over 512 µM throughout.
